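48-hour exposure; five concentrations; linearly interpolated endpoints. GI50 marks 50% less growth. Definition used: TGI = concentration required for complete inhibition of growth.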 Bounds are passed on as bounds.

Some test systems named below: 786-0 renal; HCT-15 colon; HOP-92 NSCLC; M14 melanoma; MCF7 breast; MDA-MB-435; MOLT-4 leukemia; PC-3 prostate; SK-MEL-2 melanoma; T-47D breast.
Common to all, as to experiment: NCI anticancer screen, dose series, 48 h

With `Cc1c(N=Nc2ccc([N+](=O)[O-])cc2)nc2scc(-c3ccccc3)n12`, the TGI in the assay on 786-0 renal was greater than 100 µM; in the assay with HCT-15 colon it was greater than 92.2 µM; with HOP-92 NSCLC, greater than 100 µM; in the assay on M14 melanoma it was greater than 100 µM; in the assay with MCF7 breast it was greater than 100 µM; with MDA-MB-435, greater than 100 µM. Also, the TGI in the assay with MOLT-4 leukemia, in the assay with PC-3 prostate, with SK-MEL-2 melanoma and in the assay on T-47D breast was greater than 100 µM throughout.

`CCCCn1c2cc(OCc3cn(-c4ccc(Cl)cc4)nn3)ccc2c2ccnc(C)c21`: the GI50 in the assay on 786-0 renal was 5.76 µM; with HCT-15 colon it was 6.74 µM; in the assay with HOP-92 NSCLC, 4.22 µM; in the assay with M14 melanoma, 5.82 µM; in the assay on MCF7 breast, 7.14 µM; with MDA-MB-435, 9.47 µM. Moreover, the GI50 was 6.07 µM in the assay with MOLT-4 leukemia, 7.85 µM in the assay with PC-3 prostate, 7.82 µM with SK-MEL-2 melanoma and 4.3 µM with T-47D breast. Besides, the TGI in the assay on 786-0 renal is 11 µM; in the assay with HCT-15 colon, greater than 33.3 µM; in the assay with HOP-92 NSCLC, 16.3 µM; with M14 melanoma, 16.4 µM; in the assay on MCF7 breast it was greater than 33.3 µM; in the assay with MDA-MB-435, greater than 33.3 µM. In addition, the TGI in the assay with MOLT-4 leukemia is 23.9 µM; with PC-3 prostate it was greater than 33.3 µM; in the assay with SK-MEL-2 melanoma, 22.5 µM; in the assay on T-47D breast it was 15 µM.

For the compound `O=c1cccc(C#CC#C[C@H]2O[C@@H]2CO)o1`, the GI50 with 786-0 renal is 0.637 µM; in the assay on HCT-15 colon it was 0.353 µM; in the assay with HOP-92 NSCLC it was 0.285 µM; in the assay with M14 melanoma, 1.23 µM; in the assay with MCF7 breast it was 0.472 µM; in the assay on MDA-MB-435 it was 0.474 µM. The GI50 with MOLT-4 leukemia was 0.154 µM; in the assay on PC-3 prostate, 0.664 µM; in the assay with SK-MEL-2 melanoma it was 5.53 µM; with T-47D breast, 0.401 µM. The TGI in the assay on 786-0 renal was 1.54 µM; with HCT-15 colon, 1.29 µM; with HOP-92 NSCLC, 0.531 µM; with MCF7 breast it was 4.28 µM; in the assay on MDA-MB-435, 1.21 µM; in the assay on MOLT-4 leukemia it was greater than 100 µM. The figures for the TGI in the assay on PC-3 prostate, in the assay on SK-MEL-2 melanoma and with T-47D breast were 2.01 µM, greater than 21 µM and 1.47 µM, respectively.

As for `O=C(/C=C/c1ccc(OCC(=O)N2CCN(c3ccccc3)CC2)cc1)c1ccc(Cl)cc1`, the TGI is 73.7 µM in the assay with 786-0 renal; greater than 100 µM in the assay on HCT-15 colon; 47.8 µM in the assay on HOP-92 NSCLC; greater than 100 µM with M14 melanoma; greater than 100 µM in the assay with MCF7 breast; greater than 100 µM with MDA-MB-435. In addition, the TGI in the assay on MOLT-4 leukemia is greater than 100 µM; in the assay on PC-3 prostate, greater than 100 µM; with SK-MEL-2 melanoma, 98.3 µM; with T-47D breast, greater than 100 µM.

With `N#Cc1c(C(=O)c2ccccc2)cnn1-c1ccccc1`, the GI50 in the assay with 786-0 renal, with HCT-15 colon, with HOP-92 NSCLC, with M14 melanoma, in the assay with MCF7 breast and in the assay with MDA-MB-435 was greater than 25 µM in each case. For the same compound, the GI50 in the assay on MOLT-4 leukemia, in the assay with PC-3 prostate, with SK-MEL-2 melanoma and in the assay with T-47D breast was greater than 25 µM in each case. Further, the TGI with 786-0 renal, in the assay on HCT-15 colon, in the assay on HOP-92 NSCLC, in the assay on M14 melanoma, in the assay with MCF7 breast and in the assay with MDA-MB-435 was greater than 25 µM each time. Besides, the TGI in the assay on MOLT-4 leukemia, in the assay with PC-3 prostate, in the assay on SK-MEL-2 melanoma and in the assay on T-47D breast was greater than 25 µM throughout.

Regarding `CN(C)CCCn1c2c(c3cnccc3c1=O)C(=O)c1ccccc1-2`, the GI50 in the assay on 786-0 renal is 0.361 µM; with HCT-15 colon, 0.318 µM; in the assay on HOP-92 NSCLC, 0.203 µM; with M14 melanoma, 0.391 µM; in the assay on MCF7 breast, 0.244 µM; in the assay with MDA-MB-435 it was 0.49 µM. The GI50 with MOLT-4 leukemia is 0.232 µM; in the assay with PC-3 prostate it was 0.485 µM; in the assay on SK-MEL-2 melanoma, 0.829 µM; with T-47D breast, 0.509 µM. Further, the TGI with 786-0 renal is 13.6 µM; in the assay on HCT-15 colon, 10.2 µM; in the assay with HOP-92 NSCLC, 2.68 µM; in the assay on M14 melanoma, 2.41 µM; in the assay on MCF7 breast, 1.76 µM; in the assay on MDA-MB-435 it was 2.48 µM. The TGI in the assay with MOLT-4 leukemia was found to be 2.1 µM; with PC-3 prostate, 3.93 µM; in the assay on SK-MEL-2 melanoma it was 3.6 µM; with T-47D breast it was 6.99 µM.

Take `COc1ccc(-n2c(SCc3cc(OC)c(OC)c(OC)c3)nc3ccc(C)cc3c2=O)c(OC)c1`: the GI50 in the assay on 786-0 renal is 4.99 µM; with HCT-15 colon, 4.2 µM; with HOP-92 NSCLC, 2.58 µM; in the assay on M14 melanoma, 2.7 µM; with MCF7 breast it was 3.23 µM; in the assay with MDA-MB-435 it was 1.05 µM. For the same compound, the GI50 with MOLT-4 leukemia is 3.15 µM; with PC-3 prostate it was 3.63 µM; with SK-MEL-2 melanoma it was 3.73 µM; with T-47D breast, 6.39 µM. Also, the TGI in the assay with 786-0 renal is greater than 100 µM; in the assay on HCT-15 colon, greater than 100 µM; in the assay with HOP-92 NSCLC it was greater than 100 µM; with M14 melanoma, 8.55 µM; in the assay on MCF7 breast, greater than 100 µM; in the assay on MDA-MB-435 it was 3.07 µM. Besides, the TGI in the assay on MOLT-4 leukemia was greater than 100 µM; in the assay on PC-3 prostate, greater than 100 µM; in the assay with SK-MEL-2 melanoma it was 85.1 µM; in the assay with T-47D breast, greater than 100 µM.

For `CCCC1c2c(ccc3ccccc23)Oc2ccc3ccccc3c21`, the TGI in the assay on 786-0 renal was greater than 100 µM; with HCT-15 colon, greater than 100 µM; in the assay with HOP-92 NSCLC it was greater than 100 µM; with M14 melanoma, greater than 100 µM; with MCF7 breast, 35.6 µM; in the assay with MDA-MB-435, greater than 100 µM. In addition, the TGI in the assay with MOLT-4 leukemia was greater than 100 µM; with PC-3 prostate, greater than 100 µM; with SK-MEL-2 melanoma it was 54.3 µM; with T-47D breast, greater than 100 µM.

`C=C1C(=O)O[C@H]2[C@H]1CC/C(COC(=O)NCc1cc3ccccc3[nH]1)=C\CC[C@@]1(C)O[C@@H]21`: the GI50 in the assay on 786-0 renal is 1.76 µM; with HCT-15 colon, 1.54 µM; with HOP-92 NSCLC it was 1.29 µM; in the assay on M14 melanoma, 1.74 µM; in the assay on MCF7 breast it was 1.45 µM; in the assay on MDA-MB-435, 1.75 µM. In addition, the GI50 was 2.43 µM in the assay with MOLT-4 leukemia, 1.63 µM in the assay on PC-3 prostate, 2.46 µM in the assay with SK-MEL-2 melanoma and 1.8 µM with T-47D breast. In addition, the TGI is 3.52 µM with 786-0 renal; 3.32 µM in the assay on HCT-15 colon; 2.98 µM in the assay on HOP-92 NSCLC; 3.85 µM in the assay on M14 melanoma; 3.26 µM in the assay with MCF7 breast; 3.48 µM with MDA-MB-435. Further, the TGI in the assay on MOLT-4 leukemia came to 7.64 µM; with PC-3 prostate it was 3.46 µM; in the assay with SK-MEL-2 melanoma, 7.25 µM; with T-47D breast, 4.33 µM.
